Measurements published in patent US20130184308A1, “ACTIVATED BLOOD COAGULATION FACTOR X (FXa) INHIBITOR” (DAIICHI SANKYO COMPANY, LIMITED, priority 2008, published 2013).
Like-named read-outs stand apart in the source and are kept apart here.

Legend:
[1] = tested on: bleeding events; conditions: total knee arthroplasty patients; 5 mg to 60 mg oral once a day 11 to 14 days
Text: The implementation of this clinical trial conformed to the ethical research guidelines of the Declaration of Helsinki and secured the maximal human rights, welfare, and safety of the test subjects.

[2] = tested on: bleeding events
Method: (§1) Moreover, secondary evaluations were performed for efficacy by the comparison of the incidence of thromboembolic events, pharmacodynamic indexes, and biomarkers, and for safety by the comparison of the incidences of adverse events and adverse reactions. […] In the group to which warfarin was administered, 0.5-mg and 1-mg warfarin tablets were used and orally administered once a day for 12 weeks as a rule at a dose that allowed PT-INR to be controlled to between 2.0 and 3.0 inclusive (for 70-year-old or older participants, between 1.6 and 2.6 inclusive).
(§2) The clinical trial was carried out by, after obtaining the consent of test subjects, conducting head diagnostic imaging before registration to confirm no bleeding observation, and conducting head diagnostic imaging (CT or MRI), transthoracic echocardiography, lead electrocardiography, blood pressure examination, pulse rate examination, and hematological/biochemical tests.
In the secondary analysis, the hypothesis (comparison) shown below was studied on the incidence of bleeding events using the one-sided Cochran-Armitage test at the 0.025 level of significance.
This clinical trial was carried out in conformity to the standards specified by Article 14 Paragraph 3 and Article 80-2 of the Pharmaceutical Affairs Law and MHW Ordinance No. 28 “Standards for the Implementation of Clinical Trials on Pharmaceutical Products” (Mar. 27, 1997; hereinafter, referred to as the GCP ordinance). The implementation of this clinical trial conformed to the ethical research guidelines of the Declaration of Helsinki and secured the maximal human rights, welfare, and safety of the test subjects. [Protocol No. of this clinical trial: DU-176b-C-J225_Ver.03.05.000].

[3] = tested on: D-dimer; experiment: Dose comparison study in non-valvular atrial fibrillation patients: biomarker D-dimer; format: in vivo, human; conditions: 28 days after administration
Method: as §1, §2
(§3) The biomarkers F1+2 and TAT are markers of thrombin formation, while D-dimer is a marker of secondary fibrinolysis.

[4] = tested on: F1+2, TAT, D-dimer; experiment: Early phase II trials: biomarkers F1+2, TAT and D-dimer; format: in vivo, human
Text: as §3

[5] = tested on: F1+2, TAT, D-dimer; conditions: atrial fibrillation patients; anticoagulant therapy (N. Vene et al., Thromb Haemost 2003); cited from earlier work
[6] = NVAF patients, 30 mg, 45 mg, 60 mg oral once a day 12 weeks

Row | SMILES | incidence of bleeding events compared with placebo group [1] | number of bleeding events [1] | incidence of bleeding events in four groups divided by BW (60 kg) and Ccr (50) ([2]; NVAF patients that received compound (1a)) | incidence of bleeding events (major, clinically relevant non-major, minor), dose response [2, 6] | incidence of bleeding events compared with warfarin group [2, 6] | incidence of bleeding events, Ccr≦50 versus Ccr>50 ([2]; NVAF patients, 45 mg/kg or higher (so in the source)) | incidence of bleeding events, BW≦60 kg versus BW>60 kg ([2]; NVAF patients, dose of 45 mg/kg or higher (so in the source)) | D-dimer (secondary fibrinolysis biomarker) ([3]; NVAF patients, compared with warfarin) | D-dimer (secondary fibrinolysis biomarker) ([3]; test subjects having no history of warfarin administration, compared with warfarin-administered patients) | levels of biomarkers F1+2, TAT and D-dimer [4] | levels of biomarkers F1+2, TAT and D-dimer [5]
1 | CN1CCc2nc(C(=O)N[C@@H]3C[C@@H](C(=O)N(C)C)CC[C@@H]3NC(=O)C(=O)Nc3ccc(Cl)cn3)sc2C1.Cc1ccc(S(=O)(=O)O)cc1 [compound (1a), N^1-(5-chloropyridin-2-yl)-N^2-((1S,2R,4S)-4-[(dimethylamino)carbonyl]-2-{[(5-methyl-4,5,6,7-tetrahydrothiazolo[5,4-c]pyridin-2-yl)carbonyl]amino}cyclohexyl)ethanediamide p-toluenesulfonate monohydrate] | did not differ from that in the group to which the placebo had been administered | increased in a manner dependent on the dose | highest incidence of bleeding events was obtained in the group of (4) BW≦60 kg, Ccr≦50 | increased as the dose of the compound (1a) got higher | no significant difference | higher in the group to which compound (1a) had been administered involving the test subjects having creatinine clearance (Ccr) of Ccr≦50 | higher in the group to which compound (1a) had been administered involving the test subjects having a body weight (BW) of BW≦60 kg | comparable to that of warfarin | comparable to that of warfarin-administered patients | reduce the levels of these biomarkers | 
2 | CC(=O)CC(c1ccccc1)c1c(O)c2ccccc2oc1=O (centres unmarked) [warfarin, warfarin potassium] |  |  |  |  |  |  |  |  |  |  | decreased by anticoagulant therapy using warfarin
